Active and inactive are the calls of the source. The rule behind the calls is not given here.
Test system: rodent carcinogenicity bioassays, tumor incidence
Assay: CCRIS carcinogenicity studies
In short: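 Archive of carcinogenicity, mutagenicity, tumor promotion and tumor inhibition results drawn from journals, NCI reports and other sources, expert-reviewed; covers 1985-2011 and is no longer updated.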

Measured: carcinogen call

Cn1c(N)nc2ncc(-c3ccccc3)cc21
active: Species: MOUSE, Strain/Sex: B6C3F1/MALE, Route: INTRAPERITONEAL, Dose: 0, 0.625 UMOL IN 35 µL DMSO ON D 1, 8, AND 15 AFTER BIRTH (STUDY DURATION: 12 MO), Tumor Site: Type of Lesion: LIVER: HEPATOCELLULAR ADENOMA active; positive | Species: MOUSE, Strain/Sex: B6C3F1/MALE, Route: INTRAPERITONEAL, Dose: 0, 1.25 UMOL IN 35 µL DMSO ON D 1, 8, AND 15 AFTER BIRTH (STUDY DURATION: 8 MO), Tumor Site: Type of Lesion: LIVER: HEPATOCELLULAR ADENOMA active; positive | Species: MOUSE, Strain/Sex: B6C3F1/MALE, Route: INTRAPERITONEAL, Dose: 0, 1.25 UMOL IN 35 µL DMSO ON D 1, 8, AND 15 AFTER BIRTH (STUDY DURATION: 12 MO), Tumor Site: Type of Lesion: LIVER: HEPATOCELLULAR ADENOMA, HEPATOCELLULAR CARCINOMA active; positive | Species: MOUSE, Strain/Sex: C57/FEMALE, Route: ORAL, Dose: 0, 300 PPM IN HIGH FAT DIET FOR 40 WK, FOLLOWED BY CONTINUOUS FEEDING OF HIGH FAT DIET UNTIL STUDY TERMINATION (STUDY DU, Tumor Site: Type of Lesion: SMALL INTESTINE: ADENOCARCINOMAS OR ADENOMAS active; positive | Species: MOUSE, Strain/Sex: C57/MALE, Route: ORAL, Dose: 0, 300 PPM IN HIGH FAT DIET FOR 40 WK, FOLLOWED BY CONTINUOUS FEEDING OF HIGH FAT DIET UNTIL STUDY TERMINATION (STUDY DU, Tumor Site: Type of Lesion: SMALL INTESTINE: ADENOCARCINOMAS OR ADENOMAS, LYMPHATIC SYSTEM: LYMPHOMA active; positive | Species: MOUSE, Strain/Sex: CDF1/FEMALE, Route: ORAL, Dose: 0, 0.04% IN THE DIET FOR DURATION OF STUDY (STUDY DURATION: 579 D), Tumor Site: Type of Lesion: HEMATOPOIETIC SYSTEM: LYMPHOMA active; positive | Species: MOUSE, Strain/Sex: CDF1/MALE, Route: ORAL, Dose: 0, 0.04% IN THE DIET FOR DURATION OF STUDY (STUDY DURATION: 579 D), Tumor Site: Type of Lesion: HEMATOPOIETIC SYSTEM: LYMPHOMA active; positive | Species: MOUSE, Strain/Sex: TRANSGENIC EU-PIM-1/FEMALE, Route: ORAL, Dose: 0, 0.03% IN DIET FOR 31 WK (STUDY DURATION: 31 WK), Tumor Site: Type of Lesion: LYMPHATIC SYSTEM: LYMPHOMA active; positive | Species: RAT, Strain/Sex: F344/FEMALE, Route: ORAL, Dose: 0, 25, 100 PPM IN DIET FOR 104 WK (STUDY DURATION: 104 WK), Dose: 0, 25, 100 PPM IN DIET FOR 104 WK (STUDY DURATION: 104 WK), Tumor Site: Type of Lesion: MAMMARY GLAND: ADENOCARCINOMA active; positive | Species: RAT, Strain/Sex: F344/FEMALE, Route: ORAL, Dose: 0, 400 PPM IN DIET FOR 52 WK (STUDY DURATION: 52 WK), Tumor Site: Type of Lesion: MAMMARY GLAND: ADENOCARCINOMA active; positive | Species: RAT, Strain/Sex: F344/MALE, Route: ORAL, Dose: 0, 25, 100 PPM IN DIET FOR 104 WK (STUDY DURATION: 104 WK), Dose: 0, 25, 100 PPM IN DIET FOR 104 WK (STUDY DURATION: 104 WK), Tumor Site: Type of Lesion: COLON: CARCINOMA active; positive | Species: RAT, Strain/Sex: F344/MALE, Route: ORAL, Dose: 0, 100, 300 PPM IN DIET FOR 40 WK (STUDY DURATION: 40 WK), Dose: 0, 100, 300 PPM IN DIET FOR 40 WK (STUDY DURATION: 40 WK), Tumor Site: Type of Lesion: PROSTATE (VENTRAL): PROSTATIC INTRAEPITHELIAL NEOPLASIA active; positive | Species: RAT, Strain/Sex: F344/MALE, Route: ORAL, Dose: 0, 400 PPM IN DIET FOR 52 WK (STUDY DURATION: 52 WK), Tumor Site: Type of Lesion: COLON: ADENOCARCINOMA active; positive | Species: RAT, Strain/Sex: F344/MALE, Route: ORAL, Dose: 0, 400 PPM IN DIET FOR 52 WK (STUDY DURATION: 52 WK), Tumor Site: Type of Lesion: PROSTATE (VENTRAL): CARCINOMA active; positive | Species: RAT, Strain/Sex: SPRAGUE DAWLEY/FEMALE, 43 D OLD, Route: ORAL, Dose: 75 MG/DOSE, 10 DOSES GIVEN ONCE/D OVER 12 D (STUDY DURATION: 6 MO), Tumor Site: Type of Lesion: MAMMARY GLAND active; positive (5% incidence) | Species: RAT, Strain/Sex: SPRAGUE-DAWLEY/FEMALE, Route: ORAL, Dose: 0, 12.5, 50 PPM IN DIET FOR DURATION OF STUDY (STUDY DURATION: 48 WK), Dose: 0, 12.5, 50 PPM IN DIET FOR DURATION OF STUDY (STUDY DURATION: 48 WK), Tumor Site: Type of Lesion: MAMMARY GLAND: TUMOR active; positive | Species: RAT, Strain/Sex: SPRAGUE-DAWLEY/FEMALE, Route: ORAL, Dose: 0, 25, 100, 200 PPM IN DIET FOR 48 WK (STUDY DURATION: 48 WK), Dose: 0, 25, 100, 200 PPM IN DIET FOR 48 WK (STUDY DURATION: 48 WK), Tumor Site: Type of Lesion: MAMMARY GLAND: TUMOR active; positive | Species: RAT, Strain/Sex: SPRAGUE-DAWLEY/FEMALE, Route: ORAL, Dose: 0, 25, 100, 200 PPM IN DIET FOR DURATION OF STUDY (STUDY DURATION: 48 WK), Dose: 0, 25, 100, 200 PPM IN DIET FOR DURATION OF STUDY (STUDY DURATION: 48 WK), Tumor Site: Type of Lesion: MAMMARY GLAND: TUMOR active; positive | Species: RAT, Strain/Sex: SPRAGUE-DAWLEY/FEMALE, Route: ORAL, Dose: 0, 25, 100 PPM IN DIET FROM WEANING TO 47 WK OF AGE (STUDY DURATION: 47 WK), Dose: 0, 25, 100 PPM IN DIET FROM WEANING TO 47 WK OF AGE (STUDY DURATION: 47 WK), Tumor Site: Type of Lesion: MAMMARY GLAND: TUMOR active; positive | Species: RAT, Strain/Sex: SPRAGUE-DAWLEY/FEMALE, Route: ORAL, Dose: 0, 75 MG/KG IN 5 ML CORN OIL 1/D ON DAYS 1-5 AND 8-12 OF STUDY FOLLOWED 2 DAYS LATER BY A HIGH-FAT DIET FOR DURATION OF, Tumor Site: Type of Lesion: MAMMARY GLAND: TUMOR active; positive | Species: RAT, Strain/Sex: SPRAGUE-DAWLEY/FEMALE, Route: TRANSPLACENTAL, ORAL, Dose: 0, 100 PPM IN DIET OF MOTHERS BEGINNING 4 WK BEFORE MATING AND CONTINUING THROUGH LACTATION THEN OFFSPRING ADMINISTERED, Tumor Site: Type of Lesion: MAMMARY GLAND: TUMOR active; positive | Species: RAT, Strain/Sex: STRAIN-CD/FEMALE, Route: GAVAGE, Dose: 0, 50 UMOL IN 0.5 ML TRIOCTANOIN 1/WK FOR 8 WK (STUDY DURATION: 49 WK), Tumor Site: Type of Lesion: MAMMARY GLAND: FIBROADENOMA, ADENOCARCINOMA active; positive
inactive: Species: HAMSTER, Strain/Sex: RAPID ACETYLATOR CONGENIC/MALE, Route: ORAL, Dose: 75 MG/KG BW/DOSE BY GAVAGE, 2 DOSES/WK FOR 4 WK FOLLOWED BY 1 DOSE/WK FOR 1 WK AND 1 DOSE/2 WK FOR 4 WK, FOLLOWED BY A H inactive; negative | Species: HAMSTER, Strain/Sex: SLOW ACETYLATOR CONGENIC/MALE, Route: ORAL, Dose: 75 MG/KG BW/DOSE BY GAVAGE, 2 DOSES/WK FOR 4 WK FOLLOWED BY 1 DOSE/WK FOR 1 WK AND 1 DOSE/2 WK FOR 4 WK, FOLLOWED BY A H inactive; negative | Species: MOUSE, Strain/Sex: B6C3F1/MALE, Route: INTRAPERITONEAL, Dose: 0, 0.625 UMOL IN 35 µL DMSO ON D 1, 8, AND 15 AFTER BIRTH (STUDY DURATION: 8 MO) inactive; negative | Species: MOUSE, Strain/Sex: EU-PIM-1/FEMALE, Route: ORAL, Dose: 0, 0.03% IN DIET FOR 31 WK (STUDY DURATION: 31 WK) inactive; negative | Species: MOUSE, Strain/Sex: EU-PIM-1/MALE, Route: ORAL, Dose: 0, 0.03% IN DIET FOR 31 WK (STUDY DURATION: 31 WK) inactive; negative | Species: MOUSE, Strain/Sex: NON-TRANSGENIC WILD-TYPE/FEMALE, Route: ORAL, Dose: 0, 0.03% IN DIET FOR 31 WK (STUDY DURATION: 31 WK) inactive; negative | Species: MOUSE, Strain/Sex: NON-TRANSGENIC WILD-TYPE/MALE, Route: ORAL, Dose: 0, 0.03% IN DIET FOR 31 WK (STUDY DURATION: 31 WK) inactive; negative | Species: MOUSE, Strain/Sex: TRANSGENIC EU-PIM-1/MALE, Route: ORAL, Dose: 0, 0.03% IN DIET FOR 31 WK (STUDY DURATION: 31 WK) inactive; negative | Species: MOUSE, Strain/Sex: WILD-TYPE/FEMALE, Route: ORAL, Dose: 0, 0.03% IN DIET FOR 31 WK (STUDY DURATION: 31 WK) inactive; negative | Species: MOUSE, Strain/Sex: WILD-TYPE/MALE, Route: ORAL, Dose: 0, 0.03% IN DIET FOR 31 WK (STUDY DURATION: 31 WK) inactive; negative | Species: RAT, Strain/Sex: F344/MALE, FEMALE, Route: MATERNAL MILK, Dose: 200 PPM IN DIET TO MOTHERS FROM D OF MATING TO WEANING, THEN OFFSPRING ON CONTROL DIET FOR 60 WKS (STUDY DURATION: 63 WK inactive; negative; prostate and colon tumors not enhanced; multiplicity of aberrant crypt | Species: RAT, Strain/Sex: SPRAGUE DAWLEY/FEMALE, 150 D OLD, Route: ORAL, Dose: 75 MG/DOSE, 10 DOSES GIVEN ONCE/D OVER 12 D (STUDY DURATION: 6 MO), Tumor Site: Type of Lesion: MAMMARY GLAND inactive; negative (0% incidence) | Species: RAT, Strain/Sex: SPRAGUE-DAWLEY/MALE, Route: ORAL, Dose: 0, 25, 100 PPM IN DIET FROM WEANING TO 47 WK OF AGE (STUDY DURATION: 47 WK), Dose: 0, 25, 100 PPM IN DIET FROM WEANING TO 47 WK OF AGE (STUDY DURATION: 47 WK) inactive; negative | Species: RAT, Strain/Sex: SPRAGUE-DAWLEY/MALE, Route: TRANSPLACENTAL, ORAL, Dose: 0, 100 PPM IN DIET OF MOTHERS BEGINNING 4 WK BEFORE MATING AND CONTINUING THROUGH LACTATION THEN OFFSPRING ADMINISTERED inactive; negative
